In patent US7528140B2, “Substituted pyrrolo[3,2-d]pyrimidines as glycogen synthase kinase (GSK) inhibitors” (Teijin Limited, priority 2002, dated 2009) one finds IC50 data, which are given here for 7 compounds.

Each structure is given as a SMILES string.

Sequence of recombinant human GSK-3β (P49841 whole entry): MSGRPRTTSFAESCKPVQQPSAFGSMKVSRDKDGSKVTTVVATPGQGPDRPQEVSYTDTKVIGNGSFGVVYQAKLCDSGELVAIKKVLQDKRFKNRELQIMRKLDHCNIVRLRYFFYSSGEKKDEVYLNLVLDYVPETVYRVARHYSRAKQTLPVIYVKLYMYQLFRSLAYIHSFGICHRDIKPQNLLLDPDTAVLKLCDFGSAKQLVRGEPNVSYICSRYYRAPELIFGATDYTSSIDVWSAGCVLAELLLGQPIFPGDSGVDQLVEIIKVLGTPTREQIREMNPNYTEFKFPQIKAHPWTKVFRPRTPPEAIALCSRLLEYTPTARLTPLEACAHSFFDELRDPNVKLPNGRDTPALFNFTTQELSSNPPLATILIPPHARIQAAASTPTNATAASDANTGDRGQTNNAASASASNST

The test has as its target recombinant human GSK-3β (Homo sapiens, UniProt P49841). The experiment in a line: Measurement of GSK-3 enzyme activity inhibition (32P phosphorylation of phospho-glycogen synthase peptide-2). Type of test: biochemical. To be noted: 20 μM ATP, 20 minutes at room temperature, read-out: GSK-3 enzyme inhibiting activity (IC50). As for the experimental part: Measurement of GSK-3 Enzyme Activity Inhibition
After adding 25 μL of phospho-glycogen synthase peptide-2 substrate solution [6 μM phospho -glycogen synthase peptide-2, 20 μM ATP, 16 mM MOPS buffer (pH 7.0), 0.2 mM EDTA, 20 mM magnesium acetate, 0.1 μCi [γ-^32P]ATP (specific activity: approximately 110 TBq/mmol)]to 5 μL of the test compound using 5% dimethylsulfoxide as the solvent, reaction was initiated by further addition of 20 μL of a GSK-3β enzyme solution [10 mU recombinant human GSK-3β, 20 mM MOPS buffer (pH 7.0), 1 mM EDTA, 0.1% polyoxyethylene lauryl ether (23 Lauryl Ether; Brij 35), 5% glycerol, 0.1% β-mercaptoethanol]. After conducting the reaction for 20 minutes at room temperature, an equivalent volume of a 200 mM phosphoric acid solution was added to quench the reaction, and 90 μL of the reaction product was adsorbed onto a MultiScreen PH plate (Millipore) and rinsed with a 100 mM phosphoric acid solution. After drying the plate, 30 μL of Micro Scint-O (Packard BioScience) was added, and the cpm was measured with a scintillation counter to determine the inhibiting activity. Phospho GS Peptide2 is […]P)-Glu-Asp-Glu-Glu-Glu (SEQ ID NO:1).
As to `N#Cc1c(-c2ccccc2)n(CCCc2ccccc2)c2c(=O)[nH]cnc12` [1-0320], the IC50 – broadly, the concentration needed to halve the response being measured – fell in the range of 1000 to 10000 nM.
Next, `N#Cc1c(C=Cc2ccccc2)[nH]c2c(=O)[nH]cnc12` [1-0006]: 1000 to 10000 nM.
Regarding `N#Cc1c(-c2ccccc2)n(CCC(=O)N2CCC(C(=O)O)CC2)c2c(=S)[nH]cnc12` [3-0231, 1-[3-(7-cyano-6-phenyl-4-thioxo-3-hydropyrrolo[3,2-d]pyrimidin-5-yl)propanoyl]piperidine-4-carboxylic acid], the concentration for half-maximal inhibition (IC50) is < 10 nM.
As to `CN(CCn1c(-c2ccccc2)c(C#N)c2nc[nH]c(=S)c21)C(=O)C(F)(F)F` [2-1855], the IC50 fell in the range of 30 to 100 nM.
Next, `N#Cc1c(-c2ccccc2)n(CCCOc2ccccc2)c2c(=S)[nH]cnc12` [1-0537]: 1000 to 10000 nM.
Next, `N#Cc1c(-c2ccccc2)n(CCCOC(=O)c2ccco2)c2c(=O)[nH]cnc12` [2-0530]: 1000 to 10000 nM.
Next, `N#Cc1c(-c2ccccc2Br)[nH]c2c(=O)[nH]cnc12` [1-1040, 6-(2-bromophenyl)-4-oxo-3-hydropyrrolo[3,2-d]pyrimidine-7-carbonitrile]: 1000 to 10000 nM.
